According to ChEMBL document CHEMBL1201862, “PubChem BioAssay data set” (2004):
Activity calls are given as the source filed them. How the calls were made is not given here.

Experiments:
Type in all cases: functional
[1] = biological target: Phosphorylase b kinase gamma catalytic chain, liver/testis isoform (Homo sapiens, UniProt P15735);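 further: PHKG2 measured as one member of a kinome-wide kinase panel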
[2] = biological target: Serine/threonine-protein kinase pim-1 (Homo sapiens, UniProt P11309)
Sequence of Serine/threonine-protein kinase pim-1 (P11309 whole entry): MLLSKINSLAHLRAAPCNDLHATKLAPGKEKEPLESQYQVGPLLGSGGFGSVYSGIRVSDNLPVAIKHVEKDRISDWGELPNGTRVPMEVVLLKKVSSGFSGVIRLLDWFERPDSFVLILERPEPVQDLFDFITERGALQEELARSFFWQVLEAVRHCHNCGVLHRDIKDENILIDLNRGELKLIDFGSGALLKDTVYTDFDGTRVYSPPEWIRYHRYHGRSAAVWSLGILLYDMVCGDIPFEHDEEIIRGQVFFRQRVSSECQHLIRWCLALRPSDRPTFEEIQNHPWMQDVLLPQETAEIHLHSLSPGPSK

[3] = biological target: Serine/threonine-protein kinase pim-3 (Homo sapiens, UniProt Q86V86);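 further: value obtained as one member of a broad kinase panel profiling effort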

Sequence of Phosphorylase b kinase gamma catalytic chain, liver/testis isoform (P15735 whole entry, canonical isoform): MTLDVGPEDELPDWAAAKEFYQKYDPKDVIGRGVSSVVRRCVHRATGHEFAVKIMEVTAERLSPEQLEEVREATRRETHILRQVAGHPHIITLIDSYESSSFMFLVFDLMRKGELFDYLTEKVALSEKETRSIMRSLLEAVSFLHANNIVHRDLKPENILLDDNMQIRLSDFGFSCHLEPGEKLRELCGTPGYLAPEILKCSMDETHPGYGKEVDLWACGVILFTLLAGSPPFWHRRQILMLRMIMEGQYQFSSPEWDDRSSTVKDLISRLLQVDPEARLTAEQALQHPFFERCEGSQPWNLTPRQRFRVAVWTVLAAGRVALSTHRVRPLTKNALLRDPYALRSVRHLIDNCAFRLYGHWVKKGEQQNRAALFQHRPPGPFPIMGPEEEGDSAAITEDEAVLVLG

**Q.** With `NCCCn1cc(-c2cc(-c3cc4ccccc4s3)c3[nH]ncc3c2)c2nc(N)ncc21` as the compound, how does the Ki [1] read?
**A.** Its Ki is 126 nM (active).

**Q.** And the Ki [2]?
**A.** Its Ki is > 3160 nM (inactive).

**Q.** What about the Ki [3] of the same compound?
**A.** Its Ki is 31.6 nM (active).
